PubChem BioAssay AID2742 (NMMLSC, 2010)
“And” between values parts separate entries of the source, which are not always exact repeats. Identical values can stand only once. The source made the active and inactive calls.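 The calls were made as follows: active = fitted half-maximal concentration for changing background-corrected GFP signal at or below a set limit; inactive = the rest.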

test: TOR pathway reporter MEP2-GFP, concentration series – S. cerevisiae, flow cytometry GFP, MLPCN hits, dose response (AID 2742);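 also: GFP tag reports level of MEP2 protein as a downstream target of TOR signalling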; details: S. cerevisiae MEP2-GFP strain, flow cytometry fluorescence, 3 h; at 33 µM (top of the series)

Structure (SMILES)	GFP fluorescence (kMESF), higher = increase
Cc1ccc(C(=O)Oc2oc(-c3ccco3)nc2C=Nc2ccc(Cl)cc2)cc1	3.92 kMESF (inactive)
C=CCn1c(C)c(/C=C/c2cc[n+](C)cc2)c2ccccc21	5.92 kMESF (inactive)
CCc1ccc(OCC(=O)NNC(=S)NC(=O)C2CC2)c(Br)c1	5.6 kMESF (inactive)
Cc1ccc(C)c(/C=C/C(=O)c2ccccc(=O)c2O)c1	-0.95 kMESF (inactive)
Oc1c(CN2CCN(c3ccccc3)CC2)cc(Br)c2cccnc12	7.37 kMESF (inactive)
Cc1ccc(NC(=O)CCc2ccccc2)cc1S(=O)(=O)N1CCOCC1	1.72 kMESF (inactive)
Cc1ccc(C(=O)Oc2oc(-c3ccccc3)nc2C=Nc2ccc(N(C)C)cc2)cc1	4.19 kMESF (inactive)
Nc1c(C(=O)c2cccs2)sc2nsc(SCCN3CCCCC3)c12	15.6 kMESF (inactive)
CC1=NNC(=O)/C1=C\c1cn(-c2ccccc2)nc1-c1cccs1	3.14 kMESF (inactive)
COC(=O)CCS(=O)(=O)c1nc(-c2ccccc2)cc(C(F)(F)F)n1	6.95 kMESF (inactive)
COc1cccc(/C=C2\C(=O)N(c3cccc(C)c3)C(=O)c3ccccc32)c1	4.32 kMESF (inactive)
Cc1cccc(N=C2NC(=O)/C(=C/C=C/c3ccco3)S2)c1C	6.73 kMESF (inactive)
Cc1ccccc1OCCOC(=O)c1ccc(S(=O)(=O)N2CCCC2)cc1	1.52 kMESF (inactive)
O=C(/C=C/c1ccccc1)NC(=S)NNC(=O)Cc1cccs1	2.02 kMESF (inactive)
Nc1nc(N)c2nc(CNc3ccc(C(=O)NC(CCC(=O)O)C(=O)O)cc3)cnc2n1 (stereo not drawn)	1.62 kMESF (inactive)
Cc1nn2c(NCc3ccccn3)c3c(nc2c1-c1ccccc1)CCC3	2.73 kMESF (inactive)
O=C1C=C(c2ccc(Cl)cc2)C(=O)N1Nc1ccccc1	5.31 kMESF (inactive)
O=C(Oc1oc(-c2ccco2)nc1C=Nc1ccccc1)c1ccoc1	4.11 kMESF (inactive)
N#Cc1c2ccc([N+](=O)[O-])cc2[n+]([O-])n1-c1ccccc1	1.82 kMESF (inactive)
O=C(O)/C=C/C(=O)c1ccc2c(c1)CCc1ccccc1-2	4.6 kMESF (inactive)
N/C(=N\OC(=O)c1cccc(Br)c1)c1ccccc1	2.6 kMESF (inactive)

Structure (SMILES)	GFP fluorescence (kMESF), higher = increase
Cc1c(C)c2ccc(Oc3ccc([N+](=O)[O-])cc3C(F)(F)F)c(C)c2oc1=O	2 kMESF (inactive)
COc1ccc(NC2=C(Cl)C(=O)N(CCc3ccccc3)C2=O)cc1	2.7 kMESF (inactive)
Cc1ccc(N/N=C(\C#N)C(N)=S)c(C)c1	4.52 kMESF (inactive)
COc1ccc(-c2cc(C(F)(F)F)nc(S(C)(=O)=O)n2)cc1	5.2 kMESF (inactive)
Cc1cc(O)c(C(=O)/C=C/c2ccc(Cl)cc2)c(=O)o1	4.13 kMESF (inactive)
COc1ccc(C2(C)ON(c3ccccc3C(F)(F)F)C2=O)cc1 (stereo not drawn)	2.87 kMESF (inactive)
Cc1cc(C(=O)Nc2nc(-c3ccccn3)cs2)ccc1[N+](=O)[O-]	4.48 kMESF (inactive)
O=[N+]([O-])c1ccc(S(=O)(=O)c2cccc(C(F)(F)F)c2)nc1	4.85 kMESF (inactive)
Clc1ccc(N=c2ssnc2Cl)cc1	4.8 kMESF (inactive)
CCOC(=O)CS(=O)(=O)c1nc(-c2ccc(F)cc2)cc(C(F)(F)F)n1	5.21 kMESF (inactive)
Cc1ccc(C2=NN(S(C)(=O)=O)C(c3ccc4c(c3)OCO4)C2)cc1 (stereo not drawn)	2.44 kMESF (inactive)
Cc1cccc(C(=O)NNC(=S)NC(=O)c2ccccc2)c1	5.31 kMESF (inactive)
O=C1N(c2ccccc2C(F)(F)F)OC1(Cc1ccccc1)c1ccccc1 (stereo not drawn)	2.86 kMESF (inactive)
CC(=O)N(C1=C(Cl)C(=O)c2ccccc2C1=O)C1CCCCC1	-3.41 kMESF (inactive)
C#CCOc1c(Br)cc(/C=C2/C(=O)ON=C2C)cc1OC	3.64 kMESF (inactive)
Cc1ccc(NC(=O)c2ccc(Cl)c(N3C(=O)C=CC3=O)c2)cc1	5.91 kMESF (inactive)
CCCc1cc(N2CCN(c3ccccn3)CC2)n2nc(C)c(-c3ccccc3)c2n1	3.11 kMESF (inactive)
C/C(=N\Nc1ncnc2sc(C)c(C)c12)c1ccccn1	38.2 kMESF (inactive)
O=C(Sc1cccc2cccnc12)c1ccccc1Br	4.93 kMESF (inactive)
O=C(OCn1ncc(Br)c(Br)c1=O)c1ccc(F)cc1	5.15 kMESF (inactive)
COCCN1C(=O)/C(=C/c2ccc(N3CCCC3)cc2C)SC1=S	7.22 kMESF (inactive)

Structure (SMILES)	GFP fluorescence (kMESF), higher = increase
O=C(/C=C/c1cccc([N+](=O)[O-])c1)c1ccc([N+](=O)[O-])o1	3.51 kMESF (inactive)
O=C(Nc1ccc(N2CCOCC2)cc1)C1CCN(S(=O)(=O)c2ccc3c(c2)OCCO3)CC1	2 kMESF (inactive)
Cc1ccc(S(=O)(=O)Cc2cc(F)c([N+](=O)[O-])cc2[N+](=O)[O-])cc1	0.65 kMESF (inactive)
O=C(c1ccc([N+](=O)[O-])o1)N1CCN(c2nc3c(F)cc(F)cc3s2)CC1	-3.51 kMESF (inactive)
O=C(O)c1ccc(COc2ccccc2C=C2C(=O)c3ccccc3C2=O)cc1	1.54 kMESF (inactive)
CCOc1ccccc1/C=c1\sc2ncnn2c1=O	4.47 kMESF (inactive)
O=C(Nc1ccc(NC(=O)c2cc3ccccc3o2)cc1)c1ccc2c(c1)OCCO2	2.4 kMESF (inactive)
CC(C)(C)n1nc(-c2ccc(Cl)cc2)c2c(N)ncnc21	6.05 kMESF (inactive)
O=C(NC(=S)NNC(=O)c1ccc(Cl)cc1Cl)c1cccnc1	1.66 kMESF (inactive)
O=C(OCn1ncc(Br)c(Br)c1=O)c1ccccc1Cl	4.8 kMESF (inactive)
COc1ccccc1[C@@]1(C)ON(c2ccccc2C(F)(F)F)C1=O	5.08 kMESF (inactive)
Cc1ccccc1OCC(=O)NNC(=S)NC(=O)c1ccco1	5.41 kMESF (inactive)
[O-][n+]1cccc2c(Br)cc(Br)c(O)c21	5.76 kMESF (inactive)
Cc1cc(=O)n2c3c(sc2n1)C(=O)N(Cc1ccccc1)C3=O	2.89 kMESF (inactive)
Cc1[nH]n(-c2ncc(-c3ccccc3)s2)c(=O)c1C(c1ccc(Cl)cc1)C(C#N)C#N (stereo not drawn)	4.02 kMESF (inactive)
O=C(/C=C/c1ccccc1)c1cc(Br)ccc(=O)c1O	-11.3 kMESF (inactive)
Cc1ccc(C(=O)O)cc1N=Cc1cc(Br)cc(Br)c1O	5.7 kMESF (inactive)
CN1CCN(C(c2ccc(C(F)(F)F)cc2)c2ccc3cccnc3c2O)CC1 (stereo not drawn)	4.86 kMESF (inactive)
Clc1cccc(CN2COc3c(cc(Cl)c4cccnc34)C2)c1	8.07 kMESF (inactive)
O=[N+]([O-])c1cc(O)c2ncccc2c1	5.96 kMESF (inactive)
CC1=C(C)/C(=N\OS(=O)(=O)c2ccc(C)cc2)C=CC1=O	4.38 kMESF (inactive)

Structure (SMILES)	GFP fluorescence (kMESF), higher = increase
O=S(=O)(CCN(CCS(=O)(=O)C(F)(F)F)CC1CCCO1)C(F)(F)F (stereo not drawn)	4.69 kMESF (inactive)
CCCc1nnc(NC(=O)c2c(O)c3cccc4c3n(c2=O)CCC4)s1	-1.47 kMESF (inactive)
CC(C)(C)C(=O)NC(=S)NNC(=O)c1ccc(-c2ccccc2)cc1	3.92 kMESF (inactive)
CC(C)[C@@]1(c2ccccc2)ON(c2ccccc2C(F)(F)F)C1=O	2.37 kMESF (inactive)
CC[C@@]1(c2ccccc2OC)ON(c2ccccc2C(F)(F)F)C1=O	3.17 kMESF (inactive)
O=C1N(c2ccccc2C(F)(F)F)O[C@]1(c1ccccc1)C1CCCC1	2.4 kMESF (inactive)
O=C(OCC(=O)N1CCN(C(=O)c2ccco2)CC1)c1cc(-c2cccc(Br)c2)nc2ccccc12	4.47 kMESF (inactive)
CCc1ccc2c(c1)/C(=C/C(=O)c1cccs1)C(=O)N2	3.95 kMESF (inactive)
Cc1nn2c(-c3ccncc3)nnc2c2ccccc12	1.97 kMESF (inactive)
O=C1CCN(S(=O)(=O)c2ccccc2)CCN1CCOCc1ccc(F)cc1	1.97 kMESF (inactive)
O=C1C=C(Nc2ccc(Cl)cc2)C(=O)N1c1ccc(Cl)cc1	1.97 kMESF (inactive)
Oc1c(Br)cc(Br)cc1C=Nc1ccc2[nH]ncc2c1	5.46 kMESF (inactive)
COc1ccc(/C=C/C(=O)NC(=S)NNC(=O)c2cnccn2)cc1	3.67 kMESF (inactive)
Cc1ccnc(N2C(=O)c3cccc4c([N+](=O)[O-])ccc(c34)C2=O)c1	24.6 kMESF (inactive)
O=C(Nc1nc(-c2ccccn2)cs1)C1COc2ccccc2O1 (stereo not drawn)	5.21 kMESF (inactive)
C[n+]1ccc(/C=C/c2c[nH]c3ccccc23)cc1	7.26 kMESF (inactive)
CN(Cc1cnc2nc(N)nc(N)c2n1)c1ccc(C(=O)N[C@@H](CCC(=O)O)C(=O)O)cc1	2.67 kMESF (inactive) and 1.92 kMESF (inactive)
Cn1ncc2c(O/N=C(\N)c3ccc(C(C)(C)C)cc3)ncnc21	3.78 kMESF (inactive)
O=C1N(c2ccccc2C(F)(F)F)O[C@@]1(c1ccccc1)C1CCCC1	2.17 kMESF (inactive)
COc1cccc(/C=N/Nc2ccc([N+](=O)[O-])cn2)c1O	3.24 kMESF (inactive)
